Source: paper PMC9606955, “In Vitro Activity of Essential Oils Distilled from Colombian Plants against Candida auris and Other Candida Species with Different Antifungal Susceptibility Profiles” (Molecules, 2022)
In brackets after ≈: the same amount, converted by molar mass. Entries after “also recorded” stand apart in the source; their conditions may differ.

Key:
[1] = test system: C. auris; design: method as in PMID 31980703; conditions: cited from earlier work
[2] = test system: Candida spp.; assay: Screening of antifungal activity at 256 µg/mL against twenty strains; assay type: cell-based; conditions: screening at 256 µg/mL
Description: (§1) The fungal strains used in this study were C. albicans ATCC 10231, C. albicans ATCC 64550, C. parapsilosis ATCC 22019, C. tropicalis ATCC 750, C. tropicalis ATCC 200956 (resistant to azoles and AMB), C. glabrata LMDM 34 (resistant to echinocandins), C. metapsilosis MUM 15.12, C. orthopsilosis MUM 17.13, C. lusitaniae MUM 17.08, C. krusei ATCC 6258 (Issatchenkia orientalis ATCC 6258), and C. auris CDC B11903. Additionally, nine clinical isolates were included: C. parapsilosis Synlab 406 (FLC-resistant) and eight C. auris isolates identified by MALDI-TOF MS (Bruker Daltonics, Bremen, Germany) according to Zhao et al.. These yeasts were cultured on Sabouraud Dextrose Agar (SDA; Sigma-Aldrich, St. Louis, MO, USA) for 24 h at 35 °C.
Antifungal susceptibility testing was performed according to Clinical and Laboratory Standards Institute M27, 4th Edition (CLSI standard M27, 4th Edition). Some modifications were applied for evaluation of the antifungal activity of EOs and terpenes. Initially, a screening was carried out to determine the antifungal activity of the EOs and of commercial terpenes. Stock concentrations of EOs and terpenes were prepared at 512 µg/mL and an inoculum of 2.5 × 10^3 CFU/mL of each yeast was prepared in RPMI 1640-MOPS (Sigma- Aldrich St. Louis, MO, USA). Thereafter, 100 µL of each stock solution of EOs or terpenes was dispensed in 96-well microdilution plates (Corning®, Costar®, NY, USA) and 100 µL of each yeast inoculum was added. […] MICs were visually determined at the lowest concentration that produced visual inhibition compared to the growth control. […] The results were expressed as geometric means (GM) and ranges. As an antifungal susceptibility testing control, the activity of ITC and AMB against the reference strains C. krusei ATCC 6258 and C. parapsilosis ATCC 22019 was evaluated in all experiments following the CLSI standard M27, 4th Edition. […]

[3] = test system: C. lusitaniae MUM 17.08; assay: MIC, CLSI M27 broth microdilution; assay type: cell-based, Candida lusitaniae; conditions: C. lusitaniae MUM 17.08, EOs and terpenes
Description: as §1
(§2) Antifungal susceptibility testing was performed according to Clinical and Laboratory Standards Institute M27, 4th Edition (CLSI standard M27, 4th Edition). Some modifications were applied for evaluation of the antifungal activity of EOs and terpenes. Initially, a screening was carried out to determine the antifungal activity of the EOs and of commercial terpenes. Stock concentrations of EOs and terpenes were prepared at 512 µg/mL and an inoculum of 2.5 × 10^3 CFU/mL of each yeast was prepared in RPMI 1640-MOPS (Sigma- Aldrich St. Louis, MO, USA). Thereafter, 100 µL of each stock solution of EOs or terpenes was dispensed in 96-well microdilution plates (Corning®, Costar®, NY, USA) and 100 µL of each yeast inoculum was added. […] Microdilution plates were incubated at 35 °C and, after 24 h, the presence or absence of growth was visually checked using a manual mirror viewer and then compared with the amount of growth in the control (no EO or terpene). Compounds able to inhibit yeast growth were tested to determine the minimal inhibitory concentration (MIC) as follows: 100 µL of 10 two-fold dilutions of the EOs or commercial terpenes was dispensed in 96-well microplates and the yeast inoculum was added. Final concentrations of the EOs or terpenes ranged from 0.5 µg/mL to 256 µg/mL. Microdilution plates were incubated at 35 °C for 24 h. MICs were visually determined at the lowest concentration that produced visual inhibition compared to the growth control. The assays were performed at least three times in duplicate on different days. The results were expressed as geometric means (GM) and ranges. As an antifungal susceptibility testing control, the activity of ITC and AMB against the reference strains C. krusei ATCC 6258 and C. parapsilosis ATCC 22019 was evaluated in all experiments following the CLSI standard M27, 4th Edition. It was mandatory that the MIC values remained in the accepted range.

[4] = test system: C. orthopsilosis MUM 17.13; assay: MIC, CLSI M27 broth microdilution; assay type: cell-based, Candida orthopsilosis; conditions: Lodderomyces orthopsilosis, MUM17.13; C. orthopsilosis MUM 15.12 (Table 3); EOs and terpenes; 24 h; top concentration 256 µg/mL; read-out: GM MIC
Description: as §1, §2

[5] = test system: C. tropicalis ATCC 200956; assay: Time–kill assay; assay type: cell-based, Candida tropicalis; conditions: 1X and 2X MIC, 24 h
Procedure: (§3) Time–kill assays with the L. origanoides (thymol + p-cymene) chemotype (Code 0018) EO, thymol, FLC, and AMB against C. albicans ATCC 10231, C. tropicalis ATCC 200956, and C. auris CDC B11903 were performed according to the protocol published by Klebser et al. with some modifications. […] Absorbance at λ = 490 nm was measured every 2 h with a Multiskan SkyHigh Microplate Spectrophotometer. AMB and FLC were included as fungicidal and fungistatic control drugs, respectively.

[6] = test system: C. parapsilosis Synlab 406; assay: MIC, CLSI M27 broth microdilution; assay type: cell-based, Candida parapsilosis; conditions: Lodderomyces parapsilosis, SYNLAB406; C. parapsilosis Synlab 406; EOs and terpenes; 24 h; top concentration 256 µg/mL; read-out: GM MIC
Description: as §1, §2

[7] = test system: C. krusei ATCC 6258; assay: MIC, CLSI M27 broth microdilution; assay type: cell-based, Candida krusei; conditions: C. krusei ATCC 6258, EOs and terpenes
Description: as §1, §2

[8] = test system: C. auris CDC B11903; assay: MIC, CLSI M27 broth microdilution; assay type: cell-based, Candida auris; conditions: Candidozyma auris, CDCB11903; C. auris CDC B11903; EOs and terpenes; 24 h; top concentration 256 µg/mL; read-out: GM MIC
Description: as §1, §2

[9] = test system: C. auris Ca 46; assay: MIC, CLSI M27 broth microdilution; assay type: cell-based, Candida auris; conditions: Candidozyma auris, CA46; C. auris Ca 46; EOs and terpenes; 24 h; top concentration 256 µg/mL; read-out: GM MIC
Description: as §1, §2

[10] = test system: C. auris Ca 13; assay: MIC, CLSI M27 broth microdilution; assay type: cell-based, Candida auris; conditions: Candidozyma auris, CA13; C. auris Ca 13; EOs and terpenes; 24 h; top concentration 256 µg/mL; read-out: GM MIC
Description: as §1, §2

[11] = test system: C. auris Ca 1; assay: MIC, CLSI M27 broth microdilution; assay type: cell-based, Candida auris; conditions: C. auris Ca 1, EOs and terpenes
Description: as §1, §2

[12] = test system: C. auris Ca 17; assay: MIC, CLSI M27 broth microdilution; assay type: cell-based, Candida auris; conditions: Candidozyma auris, CA17; C. auris Ca 17; EOs and terpenes; 24 h; top concentration 256 µg/mL; read-out: GM MIC
Description: as §1, §2

[13] = test system: C. auris Ca 9; assay: MIC, CLSI M27 broth microdilution; assay type: cell-based, Candida auris; conditions: Candidozyma auris, CA9; C. auris Ca 9; EOs and terpenes; 24 h; top concentration 256 µg/mL; read-out: GM MIC
Description: as §1, §2

[14] = test system: C. auris Ca 45; assay: MIC, CLSI M27 broth microdilution; assay type: cell-based, Candida auris; conditions: Candidozyma auris, CA45; C. auris Ca 45; EOs and terpenes; 24 h; top concentration 256 µg/mL; read-out: GM MIC
Description: as §1, §2

[15] = test system: C. auris Ca 41; assay: MIC, CLSI M27 broth microdilution; assay type: cell-based, Candida auris; conditions: Candidozyma auris, CA41; C. auris Ca 41; EOs and terpenes; 24 h; top concentration 256 µg/mL; read-out: GM MIC
Description: as §1, §2

[16] = test system: C. auris Ca 32; assay: MIC, CLSI M27 broth microdilution; assay type: cell-based, Candida auris; conditions: Candidozyma auris, CA32; C. auris Ca 32; EOs and terpenes; 24 h; top concentration 256 µg/mL; read-out: GM MIC
Description: as §1, §2

[17] = test system: C. metapsilosis MUM 15.12; assay: MIC, CLSI M27 broth microdilution; assay type: cell-based, Candida metapsilosis; conditions: Lodderomyces metapsilosis, MUM15.12; C. metapsilosis MUM 17.13 (Table 3); EOs and terpenes; 24 h; top concentration 256 µg/mL; read-out: GM MIC
Description: as §1, §2

[18] = test system: C. albicans ATCC 10231; assay: Time–kill assay; assay type: cell-based, Candida albicans; conditions: 1X and 2X MIC, 24 h
Procedure: as §3

[19] = test system: C. tropicalis ATCC 200956; assay: MIC, CLSI M27 broth microdilution; assay type: cell-based, Candida tropicalis; conditions: C. tropicalis ATCC 200956, EOs and terpenes
Description: as §1, §2

[20] = Cytotoxicity, MTT assay; conditions: human, HaCaT keratinocyte cells
Procedure: Cells were cultured in Dulbecco’s Modified Eagle Medium (DMEM; Sigma-Aldrich, St. Louis, MO, USA) supplemented with 10% fetal bovine serum (Invitrogen, Carlsbad, CA, USA), 1% penicillin, streptomycin, and neomycin (Invitrogen, Carlsbad, CA, USA), and 1% L-glutamine (Invitrogen, Carlsbad, CA, USA) at 37 °C in a humidified atmosphere of 5% CO2. […] Afterwards, the culture medium was removed and 3-(4.5-dimethylthiazol-2-yl)-2.5-diphenyltetrazolium bromide (MTT) (Sigma-Aldrich, St. Louis, MO, USA) at 5 mg/mL was added at 37 °C for 2 h. Subsequently, DMSO was added to dissolve the formazan crystals. Finally, the absorbances were measured with a Multiskan SkyHigh Microplate Spectrophotometer (Thermo Fisher Scientific, Waltham, MA, USA) at λ = 570 nm. The CC50 values were obtained by linear regression analysis with concentration–response curves, which were performed with absorbance data using GraphPad Prism software (Prism 9.3.0, San Diego, CA, USA). The assays were conducted at two separate times in triplicate. The data were expressed as means.

[21] = test system: C. auris CDC B11903; assay: Time–kill assay; assay type: cell-based, Candida auris
Procedure: as §3

Cc1ccc(C(C)C)c(O)c1 [Thymol, thymol]
MIC Range [1]: 156 to 625 µg/mL | antifungal activity in screening [2]: active against all tested Candida spp. | Range MIC [3]: 64 to 128 µg/mL | MIC ([3]; Clavispora lusitaniae, MUM17.08, 24 h, top concentration 256 µg/mL, read-out: GM MIC): 90.5 µg/mL (≈ 602 µM) | MIC [4]: 128 µg/mL (≈ 852 µM) | effect in time–kill assay [5]: fungicidal | MIC [6]: 64 µg/mL (≈ 426 µM) | Range MIC [7]: 128 to 256 µg/mL | MIC ([7]; Pichia kudriavzevii, ATCC6258, 24 h, top concentration 256 µg/mL, read-out: GM MIC): 181 µg/mL (≈ 1200 µM) | MIC [8]: 64 µg/mL (≈ 426 µM) | MIC [9]: 64 µg/mL (≈ 426 µM) | MIC [10]: 128 µg/mL (≈ 852 µM) | Range MIC [11]: 128 to 256 µg/mL | MIC ([11]; Candidozyma auris, CA1, 24 h, top concentration 256 µg/mL, read-out: GM MIC): 181 µg/mL (≈ 1200 µM) | MIC [12]: 64 µg/mL (≈ 426 µM) | MIC [13]: 128 µg/mL (≈ 852 µM) | MIC [14]: 64 µg/mL (≈ 426 µM) | MIC [15]: 64 µg/mL (≈ 426 µM) | MIC [16]: 64 µg/mL (≈ 426 µM) | MIC [17]: 128 µg/mL (≈ 852 µM) | effect in time–kill assay [18]: fungicidal | Range MIC [19]: 64 to 128 µg/mL | MIC ([19]; Candida tropicalis, ATCC200956, 24 h, top concentration 256 µg/mL, read-out: GM MIC): 90.5 µg/mL (≈ 602 µM) | CC50 at 24 h [20]: 428 µg/mL (≈ 2850 µM) | effect on growth in time–kill assay ([21]; 0.5, 1 and 2X MIC, 24 h): not affected; also recorded: did not show fungicidal activity | lag-phase in time–kill assay ([21]; 2X MIC): extended lag-phase
